# Laboratory results reported in PMC4820820, “CETSA screening identifies known and novel thymidylate synthase inhibitors and slow intracellular activation of 5-fluorouracil” (Nature Communications, 2016).
# Like-named read-outs stand apart in the source and are kept apart here.
# Tests used:
# [1] = biological target: T1, TS (Homo sapiens, UniProt P04818); test: TS enzyme inhibition assay; assay type: biochemical; parameters: His6 tag with TEV site (vector-encoded by pNIC28-Bsa4); made in house; host or cells: Rosetta BL21-DE3 Escherichia coli
# T1 sequence (P04818 whole entry): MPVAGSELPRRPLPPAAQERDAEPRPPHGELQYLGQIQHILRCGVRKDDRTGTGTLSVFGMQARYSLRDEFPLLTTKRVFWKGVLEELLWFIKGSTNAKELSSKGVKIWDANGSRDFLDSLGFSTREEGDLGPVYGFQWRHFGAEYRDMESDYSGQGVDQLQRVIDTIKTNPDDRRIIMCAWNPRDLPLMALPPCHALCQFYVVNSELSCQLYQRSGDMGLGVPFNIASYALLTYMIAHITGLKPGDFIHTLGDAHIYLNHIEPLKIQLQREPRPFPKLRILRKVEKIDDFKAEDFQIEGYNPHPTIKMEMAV
# Experimental: Enzymatic activity of recombinant human TS was measured spectrophotometrically at 340 nm by monitoring the absorbance change during the conversion of 5,10-methylenetetrahydrofolate to dihydrofolate using an Infinite M200 spectrometer (Tecan). Measurements were carried out at room temperature and in a buffer of 50 mM Tris at pH 7.5 and 150 mM NaCl. Initial velocities were measured with 250 nM of purified protein, 100 μM 5,10-methylenetetrahydrofolate and 100 μM dUMP in the presence of compounds using the same amount of DMSO as control. Initial rates and activity were analyzed with the software package Prism (GraphPad Software).
# (§1) Decitabine at a concentration of 1 mM was incubated with 1 mg ml^−1 of recombinant DCK and 2.5 mM ATP in a buffer of 50 mM Tris at pH 7.5, 150 mM NaCl and 0.5 mM MgCl2 at room temperature for 60 min to generate the corresponding monophosphates. To probe for nucleotide deamination the samples were further treated with 1 mg ml^−1 of recombinant DCTD in the presence of 1 mM ATP and 10 μM ZnCl2 for 20 min at room temperature. After incubation, the samples were heated at 95 °C for 10 min and centrifuged for 10 min at the highest speed at 4 °C using a benchtop centrifuge. The supernatant was tested without dilution in thermal shift in vitro assays and the TS enzyme inhibition assay. The supernatants from samples without nucleoside were used as the treatment controls.
# [2] = biological target: T1, TS; test: Thermal shift in vitro assay on recombinant protein; assay type: binding; parameters: His6 tag with TEV site (vector-encoded by pNIC28-Bsa4); made in house; host or cells: Rosetta BL21-DE3 Escherichia coli
# Experimental: The assay was performed on the iCycler iQ Real Time PCR Detection System (Bio-Rad), using the 96-well thin-wall PCR plate (Bio-Rad). The experiment was conducted in a buffer containing 20 mM HEPES at pH 7.5 and 150 mM NaCl. A total volume of 25 μl solution containing 0.2 mg ml^−1 protein, compounds and × 5 Sypro Orange dye (Invitrogen) diluted from 5,000 × stock was dispensed into the 96-well plate. The same amount of DMSO was added in the control wells. The plates were sealed with Microseal B adhesive sealer (Bio-Rad) and heated in iCycler from 25 to 80 °C (56 heating cycles in 28 min). Fluorescent filter used for Sypro Orange measurements was λexcitation=492 nm and λemission=610 nm. The calculation of the midpoint of the curves (Tm) was performed using the software package XLfit from IDBS within microsoft excel.
# as §1
# [3] = biological target: T2, human thymidylate synthase (TS) (Homo sapiens, UniProt P04818); test: CETSA primary screen / single-concentration retest, AlphaScreen, live K562 cells; assay type: cell-based
# T2 construct: screening in live, non-engineered cells expressing thymidylate synthase; endogenous in cells; host or cells: K562 (human myelogenous leukemia) cells
# T2 sequence (P04818 2-313 limits assumed): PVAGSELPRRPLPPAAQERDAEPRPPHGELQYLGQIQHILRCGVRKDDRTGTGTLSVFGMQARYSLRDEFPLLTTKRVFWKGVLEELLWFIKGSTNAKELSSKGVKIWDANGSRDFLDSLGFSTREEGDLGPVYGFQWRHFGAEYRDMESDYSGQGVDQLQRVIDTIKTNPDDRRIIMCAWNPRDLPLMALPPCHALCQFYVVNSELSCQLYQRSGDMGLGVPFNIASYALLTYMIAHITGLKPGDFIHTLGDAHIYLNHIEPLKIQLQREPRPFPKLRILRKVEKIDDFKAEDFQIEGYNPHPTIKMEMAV
SMILES,"inhibition at 10 µM ([1]; 10 μM compound, read-out: inhibition of TS enzymatic activity)",inhibition of TS enzymatic activity ([1]; 100 μM compound),"ΔTm at 25 µM ([2]; 25 μM compound, 500 μM dUMP, read-out: thermal shift of isolated recombinant human TS)","ΔTm at 100 µM ([2]; 100 μM compound, 500 μM dUMP, read-out: thermal shift of isolated recombinant human TS)","% stabilization in screen at 50 µM ([3]; K562, 2 h; read-out: % stabilization in screen)",inhibition in TS enzymatic assay ([1]; decitabine sample after DCK treatment),inhibition in TS enzymatic assay ([1]; decitabine sample after treatment with both DCK and DCTD),stabilization of recombinant TS ([2]; 1 mM decitabine after treatment with recombinant DCK),stabilization of recombinant TS in thermal shift assay ([2]; nucleoside without enzyme treatment),ΔTm at 1000 µM ([2]; read-out: thermal shift of recombinant TS),"% stabilization in screen at 50 µM ([3]; K562, 2 h, read-out: % stabilization in screen)"
"Cc1cc(O)nc2sc(C(=O)c3ccccc3)c(N)c12 [CBK115334, 3-amino-2-benzoyl-4-methylthieno(2,3-b)pyridin-6-ol]",60%,near complete inhibition,2.6 °C,5.2 °C,20%,,,,,,
"Nc1ncn([C@H]2C[C@H](O)[C@@H](CO)O2)c(=O)n1 [decitabine, 5-Aza-deoxycytidine]",,,,,,minor inhibition,near full inhibition,only a marginal stabilization,did not stabilize,~10 °C,91%
